Assay results reported in the supplement of paper PMC10331698.
± gives the standard deviation of the averaged measurements.

How the values were obtained:
Assay in all cases: level (log10 ratio to DMSO vehicle control); higher = higher biomarker level / cell amount than vehicle control
Conditions in all cases: in DMSO
[1] = compound: C=C(C)C(=O)OCC(F)(F)C(F)(F)C(F)(F)F [2,2,3,3,4,4,4-Heptafluorobutyl methacrylate]
Method: (§1)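 BioMAP Diversity Plus panel of 12 human primary cell co-culture systems (3C, 4H, LPS, SAg, BT, BF4T, BE3C, CASM3C, HDF3CGF, KF3CT, MyoF, Mphg). Compounds were added 1 h before stimulation and left for 24 h (MyoF 48 h; BT 72 h for soluble read-outs or 6 d for IgG). Biomarkers were read by ELISA, cytotoxicity by SRB, PBMC viability and proliferation by Alamar Blue. Each well value was divided by the mean of 8 DMSO control wells on the same plate and log10 transformed; duplicate blinded samples were tested at 4 concentrations.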

[2] = compound: Cc1ccc(S(=O)(=O)OCC(F)(F)C(F)(F)C(F)(F)C(F)(F)C(F)(F)C(F)F)cc1 [1H,1H,7H-Perfluoroheptyl 4-methylbenzenesulfonate]
Method: as §1

[3] = compound: FC(F)(F)C(F)(F)C(F)(F)C(F)(F)CCI [1H,1H,2H,2H-Perfluorohexyl iodide]
Method: as §1

[4] = compound: O=C(Cl)C(F)(F)C(F)(F)C(F)(F)C(=O)Cl [Hexafluoroglutaryl chloride]
Method: as §1

[5] = compound: OCC(F)(F)C(F)(F)C(F)(F)C(F)(F)C(F)(F)C(F)(F)C(F)(F)C(F)(F)CO [1H,1H,10H,10H-Perfluorodecane-1,10-diol]
Method: as §1

[6] = compound: OCC(F)(F)C(F)(F)C(F)(F)C(F)(F)C(F)(F)C(F)(F)F [6:1 Fluorotelomer alcohol]
Method: as §1

| Test System | level (log10) ([1]; 6700 nM) | level (log10) ([1]; 20000 nM) | level (log10) ([1]; 60000 nM) | level (log10) ([2]; 6700 nM) | level (log10) ([2]; 20000 nM) | level (log10) ([2]; 60000 nM) | level (log10) ([3]; 6700 nM) | level (log10) ([3]; 20000 nM) | level (log10) ([3]; 60000 nM) | level (log10) ([4]; 6700 nM) | level (log10) ([4]; 20000 nM) | level (log10) ([4]; 60000 nM) | level (log10) ([5]; 6700 nM) | level (log10) ([5]; 20000 nM) | level (log10) ([5]; 60000 nM) | level (log10) ([6]; 6700 nM) | level (log10) ([6]; 20000 nM) | level (log10) ([6]; 60000 nM) |
| --- | --- | --- | --- | --- | --- | --- | --- | --- | --- | --- | --- | --- | --- | --- | --- | --- | --- | --- |
| BF4T:MMP-3 | -0.009 ± 0.03 | -0.011 ± 0.0085 | 0.006 ± 0.0085 | -0.006 ± 0.0014 | -0.031 ± 0.0014 | -0.018 ± 0.0085 | 0.018 ± 0.04 | 0.015 ± 0.047 | 0.049 ± 0.078 | -0.004 ± 0.011 | -0.0145 ± 0.0064 | 0.019 ± 0.0057 | 0.0015 ± 0.021 | -0.0375 ± 0.026 | -0.105 | -0.012 ± 0.018 | -0.0195 ± 0.0064 | -0.002 ± 0.021 |
| 4H:VEGFR2 | -0.0065 ± 0.03 | 0.01 | 0.0085 ± 0.0021 | 0.005 ± 0.018 | 0.017 ± 0.011 | 0.01 | -0.029 ± 0.065 | -0.058 | -0.0605 ± 0.043 | -0.0325 ± 0.029 | 0.018 ± 0.031 | 0.047 ± 0.035 | -0.0455 ± 0.07 | -0.0125 ± 0.0092 | 0.055 | 0.0035 ± 0.042 | -0.005 ± 0.013 | 0.012 ± 0.023 |
| LPS:CCL2/MCP-1 | 0.0125 ± 0.015 | -0.002 ± 0.0028 | 0.018 ± 0.02 | -0.013 ± 0.0057 | -0.01 ± 0.0071 | -0.004 ± 0.013 | -0.016 ± 0.0014 | 0.0055 ± 0.0078 | -0.013 ± 0.024 | 0.0165 ± 0.005 | 0.008 ± 0.041 | 0.0265 ± 0.033 | -0.0035 ± 0.00071 | -0.0135 ± 0.015 | 0.01 | -0.0015 ± 0.029 | -0.0045 ± 0.012 | 0.0045 ± 0.029 |
| LPS:IL-1alpha | -0.04 ± 0.0057 | -0.0105 ± 0.011 | 0.042 ± 0.0014 | -0.018 ± 0.017 | -0.006 ± 0.0042 | -0.039 ± 0.0085 | -0.0045 ± 0.032 | -0.034 ± 0.047 | 0.051 ± 0.044 | -0.0955 ± 0.022 | -0.115 ± 0.015 | -0.057 ± 0.027 | 0.0225 ± 0.033 | 0.027 ± 0.016 | 0.066 | -0.038 ± 0.03 | -0.015 ± 0.061 | -0.0105 ± 0.023 |
| BF4T:CXCL8/IL-8 | 0.044 ± 0.047 | 0.0155 ± 0.073 | 0.037 ± 0.037 | -0.0195 ± 0.012 | -0.0615 ± 0.012 | -0.0515 ± 0.011 | 0.0135 ± 0.025 | 0.0195 ± 0.00071 | 0.0355 ± 0.03 | 0.045 ± 0.086 | 0.037 ± 0.072 | 0.048 ± 0.089 | 0.0005 ± 0.0064 | 0.0095 ± 0.00071 | 0.004 | 0.008 ± 0.057 | -0.0085 ± 0.039 | 0.013 ± 0.016 |
| BT:sIL-6 | 0.035 ± 0.0085 | -0.0015 ± 0.028 | -0.015 ± 0.041 | 0.0155 ± 0.011 | -0.0245 ± 0.069 | -0.0975 ± 0.021 | 0.0605 ± 0.036 | 0.0075 ± 0.0064 | -0.0525 ± 0.00071 | -0.0085 ± 0.042 | 0.008 ± 0.055 | -0.033 ± 0.023 | -0.0075 ± 0.011 | -0.0405 ± 0.032 | -0.673 | -0.001 ± 0.025 | -0.034 ± 0.073 | -0.296 ± 0.036 |
| BE3C:IL-1alpha | -0.003 ± 0.017 | -0.019 ± 0.0057 | -0.007 ± 0.011 | 0.01 ± 0.0085 | -0.003 ± 0.018 | 0.071 ± 0.061 | 0.015 ± 0.017 | 0.024 ± 0.0042 | 0.045 ± 0.023 | -0.014 ± 0.025 | -0.017 ± 0.0042 | 0.0025 ± 0.005 | -0.0035 ± 0.015 | -0.022 ± 0.0099 | -0.026 | -0.019 ± 0.0014 | 0.008 ± 0.0014 | -0.0155 ± 0.04 |
| 3C:CD87/uPAR | -0.01 ± 0.025 | -0.0125 ± 0.036 | 0.012 ± 0.0085 | -0.018 ± 0.0014 | 0.004 ± 0.017 | -0.027 ± 0.024 | 0.0035 ± 0.013 | -0.005 ± 0.0071 | 0.0085 ± 0.025 | -0.009 ± 0.0071 | 0.0225 ± 0.022 | 0.003 ± 0.041 | -0.063 ± 0.064 | -0.051 ± 0.075 | -0.165 | -0.021 | -0.01 ± 0.042 | 0 ± 0.0085 |
| LPS:sTNF-alpha | 0.005 ± 0.0057 | 0.018 ± 0.052 | 0.0415 ± 0.0092 | 0.003 ± 0.0057 | -0.006 ± 0.016 | -0.0035 ± 0.0064 | -0.003 ± 0.12 | 0.0385 ± 0.069 | 0.088 ± 0.071 | 0.046 ± 0.023 | 0.033 ± 0.0085 | 0.0465 ± 0.012 | -0.0915 ± 0.069 | -0.043 ± 0.0085 | -0.023 | -0.0625 ± 0.071 | -0.046 ± 0.09 | -0.0115 ± 0.0092 |
| LPS:sPGE2 | 0.05 ± 0.042 | -0.009 ± 0.024 | 0.076 ± 0.014 | -0.0185 ± 0.03 | -0.023 ± 0.024 | 0.003 ± 0.058 | -0.004 ± 0.014 | -0.002 ± 0.017 | 0.0245 ± 0.03 | -0.011 ± 0.018 | -0.0375 ± 0.026 | -0.056 ± 0.03 | -0.0125 ± 0.03 | 0.0375 ± 0.0078 | 0.025 | -0.0055 ± 0.028 | 0.004 ± 0.0099 | 0.005 ± 0.03 |
| 3C:SRB | -0.0125 ± 0.0021 | -0.001 ± 0.0057 | 0.0035 ± 0.00071 | 0.006 ± 0.0071 | -0.016 ± 0.013 | -0.125 ± 0.0042 | 0.0005 ± 0.018 | 0.004 ± 0.013 | -0.006 ± 0.0028 | -0.0025 ± 0.0035 | 0.008 ± 0.013 | 0.013 ± 0.0071 | 0.01 ± 0.034 | -0.021 ± 0.033 | -0.106 | -0.0045 ± 0.0092 | -0.0025 ± 0.012 | -0.21 ± 0.3 |
| BE3C:CXCL8/IL-8 | 0.016 ± 0.042 | -0.008 ± 0.031 | 0.013 ± 0.058 | -0.0345 ± 0.042 | -0.12 ± 0.059 | -0.126 ± 0.028 | 0.0225 ± 0.0078 | 0.016 ± 0.025 | 0.0525 ± 0.057 | 0.0585 ± 0.046 | 0.0345 ± 0.077 | 0.0555 ± 0.083 | -0.078 ± 0.0099 | -0.098 ± 0.025 | -0.127 | 0.004 ± 0.017 | -0.0125 ± 0.042 | -0.0075 ± 0.0064 |
| 4H:CCL2/MCP-1 | 0.0125 ± 0.012 | -0.007 ± 0.0099 | 0.0335 ± 0.047 | -0.0455 ± 0.023 | -0.098 ± 0.0071 | -0.178 ± 0.05 | 0.0175 ± 0.021 | -0.008 ± 0.016 | 0.0195 ± 0.042 | -0.022 ± 0.0042 | -0.015 | -0.015 | -0.0685 ± 0.0064 | -0.105 ± 0.018 | -0.092 | -0.005 ± 0.0071 | -0.0135 ± 0.0035 | 0.002 ± 0.042 |
| BF4T:uPA | -0.01 | -0.017 ± 0.017 | -0.007 ± 0.0085 | -0.0185 ± 0.00071 | -0.01 ± 0.0042 | -0.0165 ± 0.0064 | -0.0205 ± 0.0021 | -0.0145 ± 0.013 | 0.0115 ± 0.035 | -0.02 ± 0.048 | -0.004 ± 0.028 | -0.008 ± 0.013 | -0.014 ± 0.017 | -0.029 ± 0.0042 | -0.06 | -0.0155 ± 0.0064 | -0.011 ± 0.018 | -0.023 ± 0.024 |
